Test results published in PubChem BioAssay AID1850 (Southern Research Specialized Biocontainment Screening …, 2009).

system: Salmonella Typhi PhoP-promoter GFP reporter, fluorescence, 4 h; experiment: PhoP regulon inhibitors, Salmonella typhi PhoP promoter GFP reporter, confirmatory (AID 1850)

SMILES	IC50 [µM]
O=C(C[n+]1cc(-c2ccc(Cl)cc2)n2c1CCC2)N1c2ccccc2Sc2ccccc21	81.5
O=C(N/N=C/c1ccc([N+](=O)[O-])s1)c1ccccc1Br	74
COc1cc(Br)cc(/C=N/c2ncn[nH]2)c1O	98.4
O=C(COc1ccc(Br)cc1CNCCc1ccccc1)NCc1ccccc1	106
O=C(Cc1ccccc1)N/N=C/c1cc(Br)cc(Cl)c1O	32.7
O=[N+]([O-])c1cc(Cl)cc(/C=N/NC(=S)Nc2ccc(S(=O)(=O)N3CCOCC3)cc2)c1O	80.3
O=C(Cn1nc(C(F)F)cc1C(F)F)NNC(=S)Nc1ccc([N+](=O)[O-])cc1	139
CN1CCN(C2=Cc3cc(Cl)ccc3Sc3cc(F)ccc32)CC1	45
Fc1ccccc1CSc1ccc(-c2ccco2)nn1	133
Cc1cc([N+](=O)[O-])nn1CC(=O)N/N=C/c1ccccc1O	47.1
CC[C@H]1OC(=O)[C@H](C)[C@@H](O[C@H]2C[C@@](C)(OC)[C@@H](O)[C@H](C)O2)[C@H](C)[C@@H](O[C@@H]2O[C@H](C)C[C@H](N(C)C)[C@H]2O)[C@](C)(OC)C[C@@H](C)C(=O)[C@H](C)[C@@H](O)[C@]1(C)O	52
CN(Cc1ccccc1)CC(O)COc1ccc(CNCc2ccc(Cl)s2)cc1 (stereo not given)	124
O=C(CN1C2=NCCCN2c2ccccc21)c1ccc([N+](=O)[O-])cc1	104
N#C/C(N=Nc1ccccc1O)=N\Nc1ccccc1O	36.1
CCCCCC(=O)NC(=S)NNC(=O)CC	133
Cc1ccc(-c2csc(NC(=O)C[n+]3cc(-c4ccccc4)n4c3CCC4)n2)cc1	20.7
CCOc1ccc(-c2cc(C)[n+](CCN(CC)CC)c(-c3ccc(OCC)cc3)c2)cc1	37.5
Cc1c(Cl)cccc1Nc1nc(NCCO)c2ccccc2n1	10.8
CCCCCCCCCCCCCCCC[N+](C)(C)CCN(Cc1ccc(OC)cc1)c1ncccn1	19.3
CCCCOc1ccc(CN=C(N)N)cc1Cl	134
NC(N)=N/N=C/c1ccc(OCc2ccc(Cl)cc2Cl)cc1	18.4
CN1CCN(c2nc3cc(C(F)(F)F)ccc3n3cccc23)CC1	73.7
Cc1ccc(NC(=O)c2ccc([N+](=O)[O-])o2)c(C)c1	76.6
CCN1CCN(CCNC(=O)c2ccc3c(c2)N(Cc2ccc(F)cc2)C(=O)/C(=C/c2ccccc2)S3)CC1	44.8
C=CCNc1ncnc2c1[nH]c1ccc(Cl)cc12	18.3
CC/C(=N\Nc1ccnc2cc(Cl)ccc12)c1ccc(O)cc1	50.9
C#CCOCCOCCOCCNc1nc(N2CCN(C(=O)CCCCCCCCCCNC(=O)[C@H](CCCCN)n3cc(C)nn3)CC2)nc(N2CCN(C(=O)CCCCCCCCCCNC(=O)[C@H](CCCN=C(N)N)n3cc(C[C@@H](C)CC)nn3)CC2)n1	32.5

SMILES	IC50 [µM]
COc1cc(C)c(Cc2cnc(N)nc2N)cc1OC	2.88
N/C(=N\OS(=O)(=O)c1ccc2ccccc2c1)c1cccnc1	20.7
COc1cccc(Nc2cc(C)nc3ccccc23)c1	69.6
O=C(Nc1nnc(-c2cccs2)o1)c1cccc(C(F)(F)F)c1	22.9
c1ccc(Nc2nc(NCc3ccco3)c3ccccc3n2)cc1	5.97
CN(C)c1ccc(/C=C/c2ccc3ccccc3[n+]2C)cc1	18.7
CSc1nc2cc(Oc3cccc(Cl)c3Cl)c(Cl)cc2[nH]1	37.3
CCc1ccc2c(c1)Sc1ccccc1CC2N1CCN(C)CC1 (stereo not given)	40.7
CCCCCCCC(=O)N/N=C/c1ccc([N+](=O)[O-])o1	26.7
Cc1ccc(S(=O)(=O)NNc2ccccc2)c(C)c1	38.3
CCOC(=O)N/N=C(/C)c1ccc([N+](=O)[O-])o1	53.7
c1ccc2c(c1)OC(CCCN1CCCCC1)c1ccccc1S2 (stereo not given)	95.1
CCOC(=O)C1=C(c2ccccc2)NC(N)=NC1c1ccc(OCc2ccc(C(=O)OC)cc2)cc1 (stereo not given)	34.4
NC1=NC[C@H](c2ccccc2)N1CCc1cc(C(F)(F)F)cc(C(F)(F)F)c1	75
COc1c2ccccc2nc2ccccc12	25.6
COc1cc(CNCCc2c[nH]c3ccccc23)ccc1OCc1ccccc1F	133
O=C(N/N=C/c1cc(Br)ccc1O)c1ccncc1	34.9
O=C(Nc1cccc(Br)c1)c1cc2ccccc2o1	25.4
O=[N+]([O-])c1cc(CN2CCN(c3cccc(C(F)(F)F)c3)CC2)c2cccnc2c1O	20.8
COc1ccccc1Nc1nc(NCc2ccco2)c2ccccc2n1	19.6
O=C(Cc1ccc([N+](=O)[O-])cc1)N/N=C/c1ccc([N+](=O)[O-])o1	19.9
CN(C)CCCN(C(=O)COc1ccccc1)c1nc2ccc(Cl)cc2s1	77.8
O=C(NC(=S)NNC(=O)c1cccs1)c1ccc(Br)o1	64.3
CN1CCC(OC(=O)c2ccc(Br)cc2)CC1	65.4
O=C(N/N=C/c1ccccn1)c1ccc(Br)o1	60.7
CCN(CC)c1ccc(CNc2nc3ccccc3n2CCN2CCCCC2)cc1	52.1
O=C1CN(/N=C/c2ccc([N+](=O)[O-])o2)C(=O)N1	41.1

SMILES	IC50 [µM]
COc1cc2c3cc1Oc1cc(ccc1O)C[C@@H]1c4c(cc(OC)c(O)c4Oc4ccc(cc4)C[C@H]3N(C)CC2)CCN1C	144
OCCN1CCN(C2Cc3cc(Cl)ccc3Sc3ccc(Cl)cc32)CC1 (stereo not given) (tested in a mixture with another compound)	34.6
C=CCNc1ncnc2c1[nH]c1ccc(C)cc12	18.9
Cc1ccc(NC(=O)CNCc2ccccc2)cc1Br	52.9
CCCCc1ccc(N/C(N)=N/c2nc(C)cc(C)n2)cc1	77.8
CN(C)CC/C=C1\c2ccc(F)cc2Sc2cc(F)c(Cl)cc21	32.4
CC(Nc1nc(N2CCCCC2)nc2ccccc12)c1ccccc1 (stereo not given)	39.2
C#CCOCCOCCOCCNc1nc(N2CCN(C(=O)CCCCCCCCCCNC(=O)[C@H]([C@@H](C)CC)n3cc(CCCCCN)nn3)CC2)nc(N2CCN(C(=O)CCCCCCCCCCNC(=O)[C@H]([C@@H](C)CC)n3cc(CCCCN=C(N)N)nn3)CC2)n1	20.1
Oc1ccccc1C(Nc1nccs1)c1ccc2cccnc2c1O (stereo not given)	20.7
CN(C)CC/C=C1/c2cc(F)ccc2Sc2ccc(Cl)cc21	65.9
Nc1nnc(-c2cccc(Cl)c2Cl)c(N)n1	65.3
O=C(C[n+]1ccc(-c2ccccc2)cc1)Nc1ccc([N+](=O)[O-])cc1	40.5
COc1ccc(OCC(O)CNc2ccc(Br)cc2)cc1 (stereo not given)	5.72
CC(C(=O)NC1CCS(=O)(=O)C1)N1C(=O)/C(=C/c2ccc(Cl)cc2)SC1=S (stereo not given)	22.2
Nc1nc(F)nc2c1ncn2[C@@H]1O[C@H](CO)[C@@H](O)[C@H]1O	32.9
COc1c(N2CCN(C(=S)Nc3ccc(F)cc3)C(C)C2)c(F)cc2c(=O)c(C(=O)O)cn(C3CC3)c12 (stereo not given)	1.72
CO/N=C(/C(=O)N[C@@H]1C(=O)N2C(C(=O)O)=CCS[C@H]12)c1cnc(N)s1	18.6
c1ccc(Nc2ccnc(Nc3ccccc3)n2)cc1	33.6
C#CCOCCOCCOCCNc1nc(N2CCN(C(=O)CCCCCCCCCCNC(=O)[C@@H](CCSC)n3cc(CCO)nn3)CC2)nc(N2CCN(C(=O)CCCCCCCCCCNC(=O)[C@H]([C@@H](C)CC)n3cc(CCCCCN)nn3)CC2)n1	119
NC(=O)SCC(=O)Nc1ccc(Cl)c(Cl)c1	13.7
Clc1cccc(CN2CCc3c([nH]c4ccccc34)C2)c1Cl	76.5
Nc1ncncc1-c1ccc(Cl)cc1	143
CN1CCN(C(c2ccc(C(F)(F)F)cc2)c2ccc3cccnc3c2O)CC1 (stereo not given)	20
Clc1ccc(OCCCN2CCCC2)cc1Cl	93.3
Nc1nonc1-n1nnc(C(=O)N/N=C/c2cc(Br)ccc2O)c1CSC1=NCCS1	105
C#CCOCCOCCOCCNc1nc(N2CCN(C(=O)CCCCCCCCCCNC(=O)[C@H](CCCCN)n3cc(C[C@@H](C)CC)nn3)CC2)nc(N2CCN(C(=O)CCCCCCCCCCNC(=O)[C@H](CCCN=C(N)N)n3cc(C[C@@H](C)CC)nn3)CC2)n1	33.3
Oc1ccc(CN2CCN(c3ccccc3)CC2)c2cccnc12	147

SMILES	IC50 [µM]
O=C(CCN1CCN(c2ccccc2)CC1)c1ccc(Br)cc1	104
O=C(Nc1cccc(C2=NCCN2)c1)Nc1cccc(C2=NCCN2)c1	71.9
CCN1CCCC1CNC(=O)C1CCN(Cc2nc(-c3cccc(Br)c3)oc2C)CC1 (stereo not given)	127
N=c1c2c(n(Cc3ccc(Cl)cc3Cl)c3c1CCC3)CCCC2	42.3
Cc1ccc(C(C[N+](=O)[O-])Sc2ccc(N)cc2)cc1 (stereo not given)	55.1
O=[N+]([O-])c1cc(/C=N/Nc2nc3ccccc3[nH]2)c(O)cc1O	19.3
Cc1cc(NS(=O)(=O)c2ccc(NC(=O)Nc3cccc(Cl)c3)cc2)no1	148
O=C1c2ccccc2C2=Nc3ccccc3SC(c3ccccc3F)C12 (stereo not given)	3.8
C#CCOCCOCCOCCNc1nc(N2CCN(C(=O)CCCCCCCCCCNC(=O)[C@H]([C@@H](C)CC)n3cc(CCCCN=C(N)N)nn3)CC2)nc(N2CCN(C(=O)CCCCCCCCCCNC(=O)[C@H](CO)n3cc(CCCCCN)nn3)CC2)n1	34.7
C1=C(CCNCc2ccccc2)CCCC1	6.38
CC(C)CCC(CCNCc1ccccn1)c1ccc(Cl)cc1 (stereo not given)	65.4
CC1(C)N=C(N)N=C(N)N1c1ccc(Oc2ccc(Cl)cc2)c(Cl)c1	33.8
COc1ccc(NC(=O)c2cc(Br)c(Br)s2)cn1	10.3
COc1ccc(C(=O)NC(=S)NNC(=O)c2cccc(C)c2)cc1	61.4
CO[C@H]1C=CO[C@@]2(C)Oc3c(C)c(O)c4c(O)c(c5c(c4c3C2=O)NC2(CCN(CC(C)C)CC2)N=5)=NC(=O)C(C)=CC=C[C@H](C)[C@H](O)[C@@H](C)[C@@H](O)[C@@H](C)[C@H](OC(C)=O)[C@@H]1C	1.53
CN1C(=O)NC(c2cccc(O)c2)C(C(=O)c2cccs2)C1(O)C(F)(F)F (stereo not given)	40.3
Cc1nc2ccccn2c1C(=O)N/N=C/c1ccc([N+](=O)[O-])o1	44.5
CN(C)CCCNc1cc(C(C)(C)C)nc2c(-c3ccccc3)cnn12	31.5
O=C1OCCN1/N=C/c1ccc([N+](=O)[O-])o1	33.1
NC1=C(Br)C(=O)c2ccccc2C1=O	25.4
COc1c(N2CCNC(C)C2)c(F)cc2c(=O)c(C(=O)O)cn(C3CC3)c12 (stereo not given)	0.29
CC(C(=O)NC1C=CS(=O)(=O)C1)N1C(=O)/C(=C/c2ccc(Cl)cc2)SC1=S (stereo not given)	32
CCC(O)(CC)C(=O)N/N=C/c1cc(Br)cc(Br)c1O	77.9
C/C(=N\NC(=O)c1ccc(Cl)cc1)c1ccccn1	33.4
